{
  "source": "patent US7056940B2",
  "about": "“Insecticidal 3-(2,6-disubstituted phenyl)-5-[5-arylthien-2-yl]-1,2,4-triazoles” (Dow AgroSciences LLC, priority 2001, dated 2006)",
  "data": [
    {"test_system": "Tobacco Budworm (Heliothis virescens)", "test": "Insecticidal test for tobacco budworm, treated cotton cotyledon leaf disc", "assay_type": "in vivo", "set-up": "key: A: 90–100; B: 80–89; C: 70–79; D: 60–69; E: 50–59; F: less than 50; G: Inactive", "conditions": "cotton cotyledon leaf-dip, 2nd instar larvae, 5 days", "values": [
      {"smiles": "Cc1c(-c2nc(-c3c(F)cccc3Cl)nn2C)csc1-c1ccc(OC(F)(F)C(F)Cl)cc1", "note": "(stereo not drawn)", "TBW: activity at 400 ppm against tobacco budworm (% control rating)": "A (90–100)"},
      {"smiles": "Cc1c(-c2nc(-c3c(F)cccc3Cl)nn2C)csc1-c1ccc(OC(F)(F)CF)cc1", "TBW: activity at 400 ppm against tobacco budworm (% control rating)": "G"},
      {"smiles": "Cc1c(-c2nc(-c3c(F)cccc3Cl)nn2C)csc1-c1ccc(OC(F)(F)C(Cl)Cl)cc1", "TBW: activity at 400 ppm against tobacco budworm (% control rating)": "A (90–100)"},
      {"smiles": "Cc1c(-c2nc(-c3c(F)cccc3Cl)nn2C)csc1-c1ccc(OC(C)C)cc1", "TBW: activity at 400 ppm against tobacco budworm (% control rating)": "F (less than 50)"},
      {"smiles": "CC(C)=COc1ccc(-c2scc(-c3nc(-c4c(F)cccc4Cl)nn3C)c2C)cc1", "TBW: activity at 400 ppm against tobacco budworm (% control rating)": "F (less than 50)"},
      {"smiles": "COCCOc1ccc(-c2scc(-c3nc(-c4c(F)cccc4Cl)nn3C)c2C)cc1", "TBW: activity at 400 ppm against tobacco budworm (% control rating)": "G"},
      {"smiles": "Cc1c(-c2nc(-c3c(F)cccc3Cl)nn2C)csc1-c1cccc(C(F)(F)F)c1F", "TBW: activity at 400 ppm against tobacco budworm (% control rating)": "G"},
      {"smiles": "Cc1c(-c2nc(-c3c(F)cccc3Cl)nn2C)csc1-c1ccc(Cl)cc1F", "TBW: activity at 400 ppm against tobacco budworm (% control rating)": "F (less than 50)"},
      {"smiles": "Cc1c(-c2nc(-c3c(F)cccc3Cl)nn2C)csc1-c1ccc(Cl)c(F)c1", "TBW: activity at 400 ppm against tobacco budworm (% control rating)": "G"}
    ]},
    {"test_system": "Cotton Aphid (Aphis gossypii)", "test": "Insecticidal test for cotton aphid, spray on infested squash cotyledons", "assay_type": "in vivo", "conditions": "50 ppm spray, 3 days", "procedure,_shortened": "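Squash cotyledons were infested with all aphid life stages 16–20 h beforehand, then sprayed on both sides to runoff with 50 ppm compound (acetone:ethanol, 0.05% Tween 20). After 3 days at 26 °C and 40% RH, aphids were counted under a microscope, and percent control is population reduction versus untreated.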", "values": [
      {"smiles": "Cc1c(-c2nc(-c3c(F)cccc3Cl)nn2C)csc1-c1ccc(OC(F)(F)C(F)Cl)cc1", "note": "(stereo not drawn)", "CA: activity at 50 ppm against cotton aphid (% control rating)": "B (80–89)"},
      {"smiles": "Cc1c(-c2nc(-c3c(F)cccc3Cl)nn2C)csc1-c1ccc(OC(F)(F)CF)cc1", "CA: activity at 50 ppm against cotton aphid (% control rating)": "A (90–100)"},
      {"smiles": "Cc1c(-c2nc(-c3c(F)cccc3Cl)nn2C)csc1-c1ccc(OC(F)(F)C(Cl)Cl)cc1", "CA: activity at 50 ppm against cotton aphid (% control rating)": "B (80–89)"},
      {"smiles": "Cc1c(-c2nc(-c3c(F)cccc3Cl)nn2C)csc1-c1ccc(OC(C)C)cc1", "CA: activity at 50 ppm against cotton aphid (% control rating)": "A (90–100)"},
      {"smiles": "CC(C)=COc1ccc(-c2scc(-c3nc(-c4c(F)cccc4Cl)nn3C)c2C)cc1", "CA: activity at 50 ppm against cotton aphid (% control rating)": "A (90–100)"},
      {"smiles": "COCCOc1ccc(-c2scc(-c3nc(-c4c(F)cccc4Cl)nn3C)c2C)cc1", "CA: activity at 50 ppm against cotton aphid (% control rating)": "C (70–79)"},
      {"smiles": "Cc1c(-c2nc(-c3c(F)cccc3Cl)nn2C)csc1-c1cccc(C(F)(F)F)c1F", "CA: activity at 50 ppm against cotton aphid (% control rating)": "A (90–100)"},
      {"smiles": "Cc1c(-c2nc(-c3c(F)cccc3Cl)nn2C)csc1-c1ccc(Cl)cc1F", "CA: activity at 50 ppm against cotton aphid (% control rating)": "A (90–100)"},
      {"smiles": "Cc1c(-c2nc(-c3c(F)cccc3Cl)nn2C)csc1-c1ccc(Cl)c(F)c1", "CA: activity at 50 ppm against cotton aphid (% control rating)": "A (90–100)"}
    ]},
    {"test_system": "Two-spotted Spider Mite (Tetranychus urticae)", "test": "Insecticidal test for two-spotted spider mite, ovicide method", "assay_type": "in vivo", "set-up": "key: A: 90–100; B: 80–89; C: 70–79; D: 60–69; E: 50–59; F: less than 50; G: Inactive", "conditions": "cotton leaf discs, 6 days", "procedure,_shortened": "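Cotton leaf discs (eight, 2.2 cm each) received ten adult female two-spotted spider mites, which laid eggs for 24 hours before being taken off. The discs were then set on an agar substrate and kept at 24° C. and 90% RH for 6 days to assess ovicidal control.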", "values": [
      {"smiles": "Cc1c(-c2nc(-c3c(F)cccc3Cl)nn2C)csc1-c1ccc(OC(F)(F)C(F)Cl)cc1", "note": "(stereo not drawn)", "SM: activity against two-spotted spider mite (% control rating)": "A (90–100)"},
      {"smiles": "Cc1c(-c2nc(-c3c(F)cccc3Cl)nn2C)csc1-c1ccc(OC(F)(F)CF)cc1", "SM: activity against two-spotted spider mite (% control rating)": "G"},
      {"smiles": "Cc1c(-c2nc(-c3c(F)cccc3Cl)nn2C)csc1-c1ccc(OC(F)(F)C(Cl)Cl)cc1", "SM: activity against two-spotted spider mite (% control rating)": "A (90–100)"},
      {"smiles": "Cc1c(-c2nc(-c3c(F)cccc3Cl)nn2C)csc1-c1ccc(OC(C)C)cc1", "SM: activity against two-spotted spider mite (% control rating)": "G"},
      {"smiles": "CC(C)=COc1ccc(-c2scc(-c3nc(-c4c(F)cccc4Cl)nn3C)c2C)cc1", "SM: activity against two-spotted spider mite (% control rating)": "A (90–100)"},
      {"smiles": "COCCOc1ccc(-c2scc(-c3nc(-c4c(F)cccc4Cl)nn3C)c2C)cc1", "SM: activity against two-spotted spider mite (% control rating)": "D (60–69)"},
      {"smiles": "Cc1c(-c2nc(-c3c(F)cccc3Cl)nn2C)csc1-c1cccc(C(F)(F)F)c1F", "SM: activity against two-spotted spider mite (% control rating)": "F (less than 50)"},
      {"smiles": "Cc1c(-c2nc(-c3c(F)cccc3Cl)nn2C)csc1-c1ccc(Cl)cc1F", "SM: activity against two-spotted spider mite (% control rating)": "A (90–100)"},
      {"smiles": "Cc1c(-c2nc(-c3c(F)cccc3Cl)nn2C)csc1-c1ccc(Cl)c(F)c1", "SM: activity against two-spotted spider mite (% control rating)": "A (90–100)"}
    ]},
    {"test_system": "Cabbage Looper (Trichoplusia ni)", "test": "Insecticidal test for cabbage looper, treated cabbage leaf disc", "assay_type": "in vivo", "set-up": "key: A: 90–100; B: 80–89; C: 70–79; D: 60–69; E: 50–59; F: less than 50; G: Inactive", "conditions": "cabbage leaf-dip, 2nd instar larvae, 5 days", "values": [
      {"smiles": "Cc1c(-c2nc(-c3c(F)cccc3Cl)nn2C)csc1-c1ccc(OC(F)(F)C(F)Cl)cc1", "note": "(stereo not drawn)", "CL: activity at 400 ppm against cabbage looper (% control rating)": "A (90–100)"},
      {"smiles": "Cc1c(-c2nc(-c3c(F)cccc3Cl)nn2C)csc1-c1ccc(OC(F)(F)CF)cc1", "CL: activity at 400 ppm against cabbage looper (% control rating)": "F (less than 50)"},
      {"smiles": "Cc1c(-c2nc(-c3c(F)cccc3Cl)nn2C)csc1-c1ccc(OC(F)(F)C(Cl)Cl)cc1", "CL: activity at 400 ppm against cabbage looper (% control rating)": "A (90–100)"},
      {"smiles": "Cc1c(-c2nc(-c3c(F)cccc3Cl)nn2C)csc1-c1ccc(OC(C)C)cc1", "CL: activity at 400 ppm against cabbage looper (% control rating)": "G"},
      {"smiles": "CC(C)=COc1ccc(-c2scc(-c3nc(-c4c(F)cccc4Cl)nn3C)c2C)cc1", "CL: activity at 400 ppm against cabbage looper (% control rating)": "A (90–100)"},
      {"smiles": "COCCOc1ccc(-c2scc(-c3nc(-c4c(F)cccc4Cl)nn3C)c2C)cc1", "CL: activity at 400 ppm against cabbage looper (% control rating)": "B (80–89)"},
      {"smiles": "Cc1c(-c2nc(-c3c(F)cccc3Cl)nn2C)csc1-c1cccc(C(F)(F)F)c1F", "CL: activity at 400 ppm against cabbage looper (% control rating)": "A (90–100)"},
      {"smiles": "Cc1c(-c2nc(-c3c(F)cccc3Cl)nn2C)csc1-c1ccc(Cl)cc1F", "CL: activity at 400 ppm against cabbage looper (% control rating)": "A (90–100)"},
      {"smiles": "Cc1c(-c2nc(-c3c(F)cccc3Cl)nn2C)csc1-c1ccc(Cl)c(F)c1", "CL: activity at 400 ppm against cabbage looper (% control rating)": "A (90–100)"}
    ]},
    {"test_system": "Sweetpotato Whitefly (Bemisia tabacia)", "test": "Insecticidal test for sweetpotato whitefly, spray on cotton plants", "assay_type": "in vivo", "set-up": "key: A: 90–100; B: 80–89; C: 70–79; D: 60–69; E: 50–59; F: less than 50; G: Inactive", "conditions": "200 ppm spray, 13 days, large nymphs", "procedure,_shortened": "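Five-week cotton plants trimmed to two leaves carried 2 days of whitefly oviposition, then adults were removed. Leaves were sprayed top and bottom with 200 ppm compound in water with 0.05% Tween 20 (acetone:ethanol co-solvent), four replicates. After 13 days at 28° C/60% RH, 3rd–4th instar nymphs were counted; percent control versus solvent-only sprayed plants.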", "values": [
      {"smiles": "Cc1c(-c2nc(-c3c(F)cccc3Cl)nn2C)csc1-c1ccc(OC(F)(F)C(F)Cl)cc1", "note": "(stereo not drawn)", "WF: activity at 200 ppm against whitefly (% control rating)": "A (90–100)"},
      {"smiles": "Cc1c(-c2nc(-c3c(F)cccc3Cl)nn2C)csc1-c1ccc(OC(F)(F)CF)cc1", "WF: activity at 200 ppm against whitefly (% control rating)": "A (90–100)"},
      {"smiles": "Cc1c(-c2nc(-c3c(F)cccc3Cl)nn2C)csc1-c1ccc(OC(F)(F)C(Cl)Cl)cc1", "WF: activity at 200 ppm against whitefly (% control rating)": "A (90–100)"},
      {"smiles": "Cc1c(-c2nc(-c3c(F)cccc3Cl)nn2C)csc1-c1ccc(OC(C)C)cc1", "WF: activity at 200 ppm against whitefly (% control rating)": "G"},
      {"smiles": "CC(C)=COc1ccc(-c2scc(-c3nc(-c4c(F)cccc4Cl)nn3C)c2C)cc1", "WF: activity at 200 ppm against whitefly (% control rating)": "A (90–100)"},
      {"smiles": "COCCOc1ccc(-c2scc(-c3nc(-c4c(F)cccc4Cl)nn3C)c2C)cc1", "WF: activity at 200 ppm against whitefly (% control rating)": "F (less than 50)"},
      {"smiles": "Cc1c(-c2nc(-c3c(F)cccc3Cl)nn2C)csc1-c1cccc(C(F)(F)F)c1F", "WF: activity at 200 ppm against whitefly (% control rating)": "E (50–59)"},
      {"smiles": "Cc1c(-c2nc(-c3c(F)cccc3Cl)nn2C)csc1-c1ccc(Cl)cc1F", "WF: activity at 200 ppm against whitefly (% control rating)": "G"},
      {"smiles": "Cc1c(-c2nc(-c3c(F)cccc3Cl)nn2C)csc1-c1ccc(Cl)c(F)c1", "WF: activity at 200 ppm against whitefly (% control rating)": "G"}
    ]},
    {"test_system": "Beet Armyworm (Spodoptera exigua)", "test": "Insecticidal test for beet armyworm, treated lepidopteran diet", "assay_type": "in vivo", "set-up": "key: A: 90–100; B: 80–89; C: 70–79; D: 60–69; E: 50–59; F: less than 50; G: Inactive", "conditions": "on diet surface, second-instar larvae, 5 days", "procedure,_shortened": "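Test compound formulated at 400 ppm in 2:1 acetone:tap water; 250 μL applied onto surface of modified Shorey lepidopteran diet, five cups per compound (one cup = one replicate). After solvent air-dried, one second-instar larva placed on treated diet per cup.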", "values": [
      {"smiles": "Cc1c(-c2nc(-c3c(F)cccc3Cl)nn2C)csc1-c1ccc(OC(F)(F)C(F)Cl)cc1", "note": "(stereo not drawn)", "BAW: activity at 400 ppm against beet armyworm (% control rating)": "A (90–100)"},
      {"smiles": "Cc1c(-c2nc(-c3c(F)cccc3Cl)nn2C)csc1-c1ccc(OC(F)(F)CF)cc1", "BAW: activity at 400 ppm against beet armyworm (% control rating)": "A (90–100)"},
      {"smiles": "Cc1c(-c2nc(-c3c(F)cccc3Cl)nn2C)csc1-c1ccc(OC(F)(F)C(Cl)Cl)cc1", "BAW: activity at 400 ppm against beet armyworm (% control rating)": "A (90–100)"},
      {"smiles": "Cc1c(-c2nc(-c3c(F)cccc3Cl)nn2C)csc1-c1ccc(OC(C)C)cc1", "BAW: activity at 400 ppm against beet armyworm (% control rating)": "G"},
      {"smiles": "CC(C)=COc1ccc(-c2scc(-c3nc(-c4c(F)cccc4Cl)nn3C)c2C)cc1", "BAW: activity at 400 ppm against beet armyworm (% control rating)": "A (90–100)"},
      {"smiles": "COCCOc1ccc(-c2scc(-c3nc(-c4c(F)cccc4Cl)nn3C)c2C)cc1", "BAW: activity at 400 ppm against beet armyworm (% control rating)": "B (80–89)"},
      {"smiles": "Cc1c(-c2nc(-c3c(F)cccc3Cl)nn2C)csc1-c1cccc(C(F)(F)F)c1F", "BAW: activity at 400 ppm against beet armyworm (% control rating)": "G"},
      {"smiles": "Cc1c(-c2nc(-c3c(F)cccc3Cl)nn2C)csc1-c1ccc(Cl)cc1F", "BAW: activity at 400 ppm against beet armyworm (% control rating)": "G"},
      {"smiles": "Cc1c(-c2nc(-c3c(F)cccc3Cl)nn2C)csc1-c1ccc(Cl)c(F)c1", "BAW: activity at 400 ppm against beet armyworm (% control rating)": "F (less than 50)"}
    ]}
  ]
}
